In patent publication US8193179B2, “3-amino-6-(1-amino-ethyl)-tetrahydropyran derivatives” (Actelion Pharmaceuticals, Ltd, priority 2007, dated 2012):
Converted amounts (≈) assume the structure as drawn. Read-outs that look alike come from different tables or passages of the source.

How the values were obtained:
Assay type in all cases: cell-based
P. aeruginosa A1124 = assay: MIC by microdilution in cation-adjusted Mueller-Hinton Broth, P. aeruginosa A1124; conditions: strain A1124, test medium pH 7.2-7.3; for MIC: Pseudomonas aeruginosa
Description: (§1) These assays have been performed following the description given in “Methods for dilution Antimicrobial Susceptibility Tests for Bacteria that Grow Aerobically, 4th ed.; Approved standard: NCCLS Document M7-A4; National Committee for Clinical Laboratory Standards: Villanova, Pa., USA, 1997”. Minimal inhibitory concentrations (MICs; mg/l) were determined in cation-adjusted Mueller-Hinton Broth (BBL) by a microdilution method following NCCLS guidelines (National Committee for Clinical Laboratory Standards. Methods for Dilution Antimicrobial Susceptibility). The pH of the test medium was 7.2-7.3.

A. baumanii T6474 = assay: MIC by microdilution in cation-adjusted Mueller-Hinton Broth, A. baumanii T6474; conditions: strain T6474, test medium pH 7.2-7.3; for MIC: Acinetobacter baumannii
Description: as §1

S. aureus A798 = assay: MIC by microdilution in cation-adjusted Mueller-Hinton Broth, S. aureus A798; conditions: strain A798, test medium pH 7.2-7.3; for MIC: Staphylococcus aureus
Description: as §1

[1] = read-out: MIC P. aeruginosa A1124 (further typical results, comparison with WO 2006/032466)
[2] = read-out: MIC P. aeruginosa A1124

Question: `COc1ccc2nccc(C[C@H](N)[C@@H]3CC[C@@H](NCc4ccc5c(n4)NC(=O)CS5)CO3)c2n1` [Example 8, 6-({(3R,6S)-6-[(1S)-1-amino-2-(6-methoxy-[1,5]naphthyridin-4-yl)-ethyl]-tetrahydro-pyran-3-ylamino}-methyl)-4H-pyrido[3,2-b][1,4]thiazin-3-one] was tested. Which MIC (P. aeruginosa A1124; [1]) did it give?
Answer: 2 µg/mL (≈ 4.16 µM)

Question: What does the source list for `NC(Cc1ccnc2ccc(F)cc12)[C@@H]1CC[C@@H](NC/C=C/c2cc(F)ccc2F)CO1` (mixture of isomers) [Example 3, {(3R,6S)-6-[(1RS)-1-amino-2-(6-fluoro-quinolin-4-yl)-ethyl]-tetrahydro-pyran-3-yl}-[(E)-3-(2,5-difluoro-phenyl)-allyl]-amine]?
Answer: MIC (A. baumanii T6474): 0.5 µg/mL; MIC (P. aeruginosa A1124; [2]): 0.5 µg/mL; MIC (S. aureus A798): 0.25 µg/mL

Question: `COc1ccc2nccc(CC(N)[C@@H]3CC[C@@H](NCc4ccc5c(n4)NC(=O)CS5)CO3)c2c1` (mixture of isomers) [Example 4, 6-({(3R,6S)-6-[(1RS)-1-amino-2-(6-methoxy-quinolin-4-yl)-ethyl]-tetrahydro-pyran-3-ylamino}-methyl)-4H-pyrido[3,2-b][1,4]thiazin-3-one] was tested. Which MIC (P. aeruginosa A1124; [1]) did it give?
Answer: 8 µg/mL

Question: `COc1ccc2ncc(F)c(CC(N)[C@@H]3CC[C@@H](NCc4ccc5c(n4)NC(=O)CO5)CO3)c2n1` (mixture of isomers) [Example 15, 6-({(3R,6S)-6-[(1RS)-1-amino-2-(3-fluoro-6-methoxy-[1,5]naphthyridin-4-yl)-ethyl]tetrahydro-pyran-3-ylamino}-methyl)-4H-pyrido[3,2-b][1,4]oxazin-3-one] was tested. Which MIC (A. baumanii T6474) did it give?
Answer: ≤ 0.031 µg/mL

Question: What about the MIC (P. aeruginosa A1124; [2]) of the same compound?
Answer: 0.125 µg/mL

Question: And the MIC (S. aureus A798)?
Answer: ≤ 0.031 µg/mL

Question: How did the “MIC A. baumanii T6474” value (A. baumanii T6474) turn out when `COc1ccc2nccc(C[C@H](N)[C@@H]3CC[C@@H](NCc4ccc(C)c(F)c4)CO3)c2n1` [Example 19] was run?
Answer: 0.5 µg/mL (≈ 1.18 µM)

Question: What about the “MIC P. aeruginosa A1124” value (P. aeruginosa A1124) of the same compound?
Answer: 2 µg/mL (≈ 4.71 µM)

Question: What about the “MIC S. aureus A798” value (S. aureus A798) of the same compound?
Answer: ≦0.031 mg/l
